Source: US9296831B2, “Herbal extract composition for the treatment of diabetes and a method of extracting the same” (priority 2014, dated 2016)

Columns and labels:
[1] = system: Wistar rats; experiment: Post prandial blood sugar (BS) levels in STZ-induced diabetic rats; assay type: in vivo, rat; conditions: oligosaccharide 16 mg/kg, metformin 15 mg/kg/day
Protocol: According to one embodiment herein, the oligosaccharide is administered to rats after purification and structural analysis of the oligosaccharide. The eight week old Wistar rats, weighing from 200-250 gm are purchased from Pasteur institute (Tehran, Iran). The animals are kept on a standard diet with free access to water and food throughout the study. All treatments and maintenance of the animals are carried out in accordance with the principles of laboratory animal care. Further diabetes is induced in the animals except the controls by a single intraperitoneal injection of STZ (60 mg/kg) freshly dissolved in citrate buffer of 5 mmol/L and a pH of 4.5. After an elapse of 48 hrs since the injection of streptozocin (STZ), the diabetes is confirmed by measuring the glucose levels in the blood samples. The blood samples are obtained from the retro-orbital sinus of the animals under diethyl ether-induced light anesthesia with GlucoDr Glucometer (Allmedicus; Germany). […] The first group comprises ten rats and is administered with the oligosaccharide. The second group comprises eight rats and the rats in the second group are injected with the citrate buffer. This group is called a negative control group. The amount of citrate buffer administered to the second group and the amount of oligosaccharide administered to the first group are same or equal. The rats in the oligosaccharide treated groups are given different doses (8-40 mg/kg) of the pure materials dissolved in distilled water twice daily for 21 days starting from the third day since the STZ injection. […] The molecules of glybenclamide or metformin are administered intraperitoneally or by oral gavage and stopped after three weeks. The water intake and urine volume are measured throughout the study. Twenty four hours after the administration of the last dose of oligosaccharide, the blood glucose is monitored in fasting and non-fasting states. The body and pancreas weights are compared. Oral glucose tolerance test, insulin tolerance test, gluconeogenesis inhibition test and alfa glucosidase inhibition tests are conducted. […] The untreated negative controls received no molecule, while the test group received oligosaccharide and the positive control received either metformin or glybenclamide. FIG. 2 illustrates a flow chart indicating the administration and testing of the anti-diabetic effect of oligosaccharide molecule, according to an embodiment herein. The process of administering and testing the antidiabetic effect of oligosaccharide molecule comprises purchasing eight week old male Wistar rats weighing 200-250 gm (201). The rats are purchased from Pasteus Institute (Tehran, Iran). The rats are kept on a standard diet with free access to water and food throughout the study. All the treatments and maintenance of the animals is carried out in accordance with the principles of laboratory animal care. Inducing diabetes by stretozotocin (STZ) 60 mg/kg injection (202). The diabetes is induced in all rats except in the rats in the control group by intraperitoneal injection of STZ freshly dissolved in 5 mmol/L citrate buffer (pH 4.5). The diabetes is confirmed 48 hrs after STZ infection by measuring blood glucose levels (203). The blood from rats is obtained from retro-orbital sinus of the animals under diethyl ether induced light anesthesia with GlucoDr Glucometer (Allmedicus; Germany). […] The rats in positive control, negative control and oligosaccharide treated group are divided into different groups (204). The rats in the negative control group are injected with citrate buffer for three weeks (205). The rats in the positive control group are injected with glybendamide and metformin for three weeks (206). The rats in the oligosaccharide group are injected with different concentration (8-40 mg/kg) of oligosaccharide for three weeks (207). The oligosaccharide is dissolved in distilled water and administered twice daily after STZ injection induced diabetes. […]

[2] = system: rats; experiment: Sub acute toxicity test, hematology, 15 days; assay type: in vivo
Protocol: (§1) According to one embodiment herein, the acute, sub acute and sub chronic toxicological tests are performed based on the standard protocols. For the acute sequential design procedure of LD-50, limit dose test were done and mortality rate is recorded up to 14 days. […] For the animals in the control groups, distilled water is administered by the same protocols. At the end of the time period, the rats are killed and the body specimens are collected for the determination of biochemical, hematological and pathological parameters.

[3] = system: rats; experiment: Sub acute toxicity test, biochemistry, 15 days; assay type: in vivo
Protocol: as §1

[4] = system: rats; conditions: rat, in vivo
Protocol: According to one embodiment herein, the acute, sub acute and sub chronic toxicological tests are performed based on the standard protocols. For the acute sequential design procedure of LD-50, limit dose test were done and mortality rate is recorded up to 14 days. Sub acute and sub chronic toxicological tests are performed by an administration of 160 mg/kg (10 folds of therapeutics dose) for 21 and 52 days respectively. For the animals in the control groups, distilled water is administered by the same protocols. At the end of the time period, the rats are killed and the body specimens are collected for the determination of biochemical, hematological and pathological parameters.

[5] = 21 days after treatment, glybenclamide 5 mg/kg/day
[6] = 30 days after withdrawal of the treatment, glybenclamide 5 mg/kg/day
[7] = before treatment (baseline), glybenclamide 5 mg/kg/day groups

COc1ccc(Cl)cc1C(=O)NCCc1ccc(S(=O)(=O)NC(=O)NC2CCCCC2)cc1 [Glybenclamide, glybenclamide]
BS levels mg/dl (SD), post prandial [1, 5]: 250(63) mg/dl | BS levels mg/dl (SD), post prandial [1, 6]: 363(64) mg/dl | BS levels mg/dl (SD), post prandial [1, 7]: 360(41) mg/dl

CN(C)C(=N)N=C(N)N [Metformin, metformin]
BS levels mg/dl (SD), post prandial [1, 5]: 261(49) mg/dl | BS levels mg/dl (SD), post prandial [1, 6]: 375(59) mg/dl | BS levels mg/dl (SD), post prandial [1, 7]: 375(57)(20) mg/dl

COC(=O)C1OC(O)C(O)C(O)C1OC1OC(C(=O)OC)C(OC2OC(C(=O)OC)C(OC3OC(C(=O)O)C(O)C(O)C3O)C(O)C2OC(C)=O)C(O)C1O (centres unmarked) [Oligosaccharide]
BS levels mg/dl (SD), post prandial [1, 5]: 150(21) mg/dl | BS levels mg/dl (SD), post prandial [1, 6]: 144(18) mg/dl | BS levels mg/dl (SD), post prandial [1, 7]: 364(41) mg/dl | HCT ([2]; 16 mg/kg): 42.8 ± 2.9% | Hb ([2]; 16 mg/kg): 14.3 ± 0.6 g/dL | MCH ([2]; 16 mg/kg): 18.1 ± 4.9 pg | MCHC ([2]; 16 mg/kg): 33.8 ± 4.7 g/dL | MCV ([2]; 16 mg/kg): 54.51 ± 3.2 fL | PLT ([2]; 16 mg/kg): 9.4 ± 1.3 ×105/ml | RBC ([2]; 16 mg/kg): 8.08 ± 1.3 ×106/ml | WBC ([2]; 16 mg/kg): 10.5 ± 3.3 ×103/ml | HCT ([2]; 160 mg/kg): 42.6 ± 1.1% | Hb ([2]; 160 mg/kg): 14.1 ± 0.3 g/dL | MCH ([2]; 160 mg/kg): 18.3 ± 3.9 pg | MCHC ([2]; 160 mg/kg): 33.9 ± 5.1 g/dL | MCV ([2]; 160 mg/kg): 55.9 ± 2.5 fL | PLT ([2]; 160 mg/kg): 9.3 ± 2.1 ×105/ml | RBC ([2]; 160 mg/kg): 7.98 ± 1.9 ×106/ml | WBC ([2]; 160 mg/kg): 8.9 ± 2.9 ×103/ml | ALP ([3]; 16 mg/kg): 442.69 ± 90.54 u/l | ALT ([3]; 16 mg/kg): 146.33 ± 18.41 u/l | AST ([3]; 16 mg/kg): 169.41 ± 17.5 u/l | Alb ([3]; 16 mg/kg): 3.22 ± 0.04 g/dL | CPK ([3]; 16 mg/kg): 1341.5 ± 311.12 u/l | Chol ([3]; 16 mg/kg): 82.15 ± 22.11 mg/dL | Cr ([3]; 16 mg/kg): 0.66 ± 0.02 mg/dL | Glucose ([3]; 16 mg/kg): 113.61 ± 16.4 mg/dL | LDH ([3]; 16 mg/kg): 2019.7 ± 390.4 u/l | TG ([3]; 16 mg/kg): 98.41 ± 15.63 mg/dL | Urea ([3]; 16 mg/kg): 54.71 ± 9.98 mg/dL | Uric acid ([3]; 16 mg/kg): 1.62 ± 0.32 mg/dL | ALP ([3]; 160 mg/kg): 351.37 ± 63.21 u/l | ALT ([3]; 160 mg/kg): 142.31 ± 21.32 u/l | AST ([3]; 160 mg/kg): 177.51 ± 24.2 u/l | Alb ([3]; 160 mg/kg): 3.24 ± 0.05 g/dL | CPK ([3]; 160 mg/kg): 1398.3 ± 115.5 u/l | Chol ([3]; 160 mg/kg): 81.11 ± 14.31 mg/dL | Cr ([3]; 160 mg/kg): 0.65 ± 0.04 mg/dL | Glucose ([3]; 160 mg/kg): 109.3 ± 10.4 mg/dL | LDH ([3]; 160 mg/kg): 2110.5 ± 504.7 u/l | TG ([3]; 160 mg/kg): 97.99 ± 17.49 mg/dL | Urea ([3]; 160 mg/kg): 54.87 ± 6.63 mg/dL | Uric acid ([3]; 160 mg/kg): 1.58 ± 0.25 mg/dL | abnormality in pathologic studies [4]: no abnormality is observed
